According to patent US8642012B2, “Methods of treatment using ammonia-scavenging drugs” (Hyperion Therapeutics, Inc., priority 2008, dated 2014):
“Also recorded” adds a separate entry of the source. Values belong to the compound of their own block, whether it stands above or below them.

How the values were obtained:
venous ammonia = assay: Adult UCD patients, sodium PBA vs HPN-100: venous ammonia pharmacodynamics; assay type: in vivo, human; conditions: for Venous ammonia Cmaxss, Mean / Venous ammonia Cmaxss, Median / Venous ammonia TN-AUC, Mean / Venous ammonia TN-AUC, Median: N 10 UCD subjects; for Venous ammonia Cmaxss, Mean / Venous ammonia Cmaxss, Median / Venous ammonia TN-AUC, Mean / Venous ammonia TN-AUC, Median / Venous ammonia Cmaxss / Venous ammonia TN-AUC: seven days of dosing, steady state; for TN-AUC (NH3): plasma ammonia; for NH3: Total AUC / NH3 exposure: DAY (hours 6-12) / NH3 exposure: NIGHT (hours 12-24) / NH3 Cmax: equimolar rates (n=10); for NH3 Cmax: in µmol/L
Source text: (§1) Subjects stayed on the 100% HPN-100 dose for one week and were then re-admitted to the study unit for repeated PK (Visit 11-1), ammonia and urine collections.

[1] = HPN-100 in subjects with cirrhosis and healthy adults: urinary PAGN excretion; assay type: in vivo, human; conditions: for Molar % of dose ammonia scavenged, Mean (SD): after dosing on day 15 (0-48 hours)
Experimental: (§2) To determine its pharmacokinetic (PK) and pharmacodynamic (PD) profile in patients with liver disease, clinical testing was conducted in which HPN-100 was administered orally as a single dose (100 mg/kg/day on day 1), and twice daily for 7 consecutive days (200 mg/kg/day on days 8 through 14, in two doses of 100 mg/kg per dose), to subjects with hepatic impairment with cirrhosis (Child-Pugh scores of A, B, or C) and to a gender and age-matched control group of healthy adults with normal hepatic function. On day 15, subjects received a single dose of HPN-100 (100 mg/kg). PK blood samples were taken pre-dose, at 15 and 30 minutes post-dose, and at 1, 1.5, 2, 3, 4, 6, 8, 12, and 24 hours post-dose on days 1, 8, and 15, and at 48 hours after dosing on days 1 and 15. On days 9-14, blood samples were taken pre-morning dose and at 2 hours post-morning dose. Urine was collected 0-4, 4-8, 8-12, and 12-24 hours post-dose on days 1, 8, and 15, and at 24-48 hours post-dose on days 1 and 15.

[2] = Overall findings across the clinical studies (conversion to urinary PAGN, tolerability); assay type: in vivo, human
Source text: These are followed by a biological explanation for the findings.

[3] = ADME study of radio labeled sodium PBA or HPN-100 in cynomolgous monkeys; assay type: in vivo; conditions: 600 mg/kg single dose
Source text: These monkeys were chosen because, like humans (and unlike most other species), they metabolize PAA to PAGN and thus provide a useful model for testing prodrugs of PAA.

[4] = HPN-100 in subjects with cirrhosis (Child-Pugh A, B, C) and healthy adults: plasma PK; assay type: in vivo, human
Experimental: as §2

[5] = Adult UCD patients, sodium PBA vs HPN-100: urinary PAGN excretion; assay type: in vivo, human; conditions: for PAGN excretion: equimolar rates (n=10)
Source text: as §1

[6] = Adult UCD patients switched from sodium PBA to equimolar HPN-100: plasma PK at steady state; assay type: in vivo, human
Source text: as §1

[7] = Adult UCD patients, sodium PBA vs HPN-100: safety and patient preference; assay type: in vivo, human; conditions: UCD patients (n=10)
Source text: as §1

[8] = healthy adults; single dose; urine collected to 24 hours
[9] = Single dose PK in healthy adults: plasma PBA, PAA, PAGN; assay type: in vivo, human; conditions: healthy volunteers, single dose 3 g/m^2/day PBA mole equivalent
Experimental: To assess its pharmacokinetic (PK) and pharmacodynamic (PD) profile, HPN-100 was administered as a single dose to 24 healthy adults. Pharmacokinetic samples were taken pre-dose and at 15 and 30 minutes post-dose and 1, 1.5, 2, 3, 4, 6, 8, 12, 24, and 48 hours post-dose.
Plasma levels of PAA, PBA, and PAGN were monitored periodically for 12-24 hours by known methods.

[10] = individual UCD patients; Brusilow 1991, Brusilow and Finkelstien 1993; cited from earlier work
[11] = PK/PD modeling (NONMEM VI) of plasma and urinary metabolite data from the clinical studies; parameters: species or system human
[12] = UCD patients, equimolar dosages
[13] = UCD patients, not statistically significant
[14] = plasma, UCD subjects, multiple dose, PBA mole equivalent
[15] = steady state, UCD patients N = 10, arithmetic mean

- Intact HPN-100 in systemic circulation or in excretions [3]: essentially no HPN-100
- Alternative metabolites PAG, PBG and PBGN in plasma ([4]; all plasma samples, all subject groups): below the limit of quantification
- PAGN excretion [5]: Comparable
Compound: O=C(CCCc1ccccc1)OCC(COC(=O)CCCc1ccccc1)OC(=O)CCCc1ccccc1 [HPN-100, glyceryl tri-[4-phenylbutyrate]]
- Venous ammonia Cmaxss, Mean (venous ammonia): 56.3 µmol/L
- Venous ammonia Cmaxss, Median (venous ammonia): 60.0 µmol/L
- Venous ammonia TN-AUC, Mean (venous ammonia): 26.1 µmol/L
- Venous ammonia TN-AUC, Median (venous ammonia): 22.3 µmol/L
- Venous ammonia Cmaxss (venous ammonia; Subject 1001): 63.0 µmol/L
- Venous ammonia TN-AUC (venous ammonia; Subject 1001): 19.8 µmol/L
- Venous ammonia Cmaxss (venous ammonia; Subject 1002): 31.0 µmol/L
- Venous ammonia TN-AUC (venous ammonia; Subject 1002): 19.3 µmol/L
- Venous ammonia Cmaxss (venous ammonia; Subject 1004): 106 µmol/L
- Venous ammonia TN-AUC (venous ammonia; Subject 1004): 35.1 µmol/L
- Venous ammonia Cmaxss (venous ammonia; Subject 1006): 13.0 µmol/L
- Venous ammonia TN-AUC (venous ammonia; Subject 1006): 8.30 µmol/L
- Venous ammonia Cmaxss (venous ammonia; Subject 2001): 33.0 µmol/L
- Venous ammonia TN-AUC (venous ammonia; Subject 2001): 22.7 µmol/L
- Venous ammonia Cmaxss (venous ammonia; Subject 2003): 74.0 µmol/L
- Venous ammonia TN-AUC (venous ammonia; Subject 2003): 21.1 µmol/L
- Venous ammonia Cmaxss (venous ammonia; Subject 3002): 36.0 µmol/L
- Venous ammonia TN-AUC (venous ammonia; Subject 3002): 21.9 µmol/L
- Venous ammonia Cmaxss (venous ammonia; Subject 3004): 75.0 µmol/L
- Venous ammonia TN-AUC (venous ammonia; Subject 3004): 38.4 µmol/L
- Venous ammonia Cmaxss (venous ammonia; Subject 5001): 57.0 µmol/L
- Venous ammonia TN-AUC (venous ammonia; Subject 5001): 35.5 µmol/L
- Venous ammonia Cmaxss (venous ammonia; Subject 5002): 75.2 µmol/L
- Venous ammonia TN-AUC (venous ammonia; Subject 5002): 39.1 µmol/L
- Mean percentage of normal ammonia values (venous ammonia; UCD patients): 83%
- Peak venous ammonia concentration (venous ammonia; UCD patients): 56.3 µmol/L
- Venous ammonia mean TN-AUC (venous ammonia; UCD patients): 26.1 µmol/L
- Ammonia level reached in patients above about 40 μmol/L on sodium PBA (venous ammonia; UCD patients, equimolar dosages, FIG. 12): below 40 μmol/L
- TN-AUC (NH3) (venous ammonia; [12]): 26.1 µM
- NH3: Total AUC (venous ammonia; UCD patients): 26.1 ± 10.3
- NH3 exposure: DAY (hours 6-12) (venous ammonia; UCD patients): 32.9
- NH3 exposure: NIGHT (hours 12-24) (venous ammonia; UCD patients): 21.3
- NH3 Cmax (venous ammonia; UCD patients): 56.3 ± 27.9
- Peak venous ammonia, lowering versus sodium PBA (venous ammonia; [13]): ~29%
- Venous ammonia TN-AUC, lowering versus sodium PBA (venous ammonia; [13]): ~31%
- Effect of hepatic impairment on ammonia-scavenging ability ([1]; Child-Pugh groups vs healthy volunteers): no significant effect
- Molar % of dose ammonia scavenged, Mean (SD) ([1]; Child-Pugh A (8)): 159.2 (60.9) Molar %
- Molar % of dose ammonia scavenged, Mean (SD) ([1]; Child-Pugh B (8)): 116.3 (58.3) Molar %
- Molar % of dose ammonia scavenged, Mean (SD) ([1]; Child-Pugh C (8)): 169.9 (130.1) Molar %
- Molar % of dose ammonia scavenged, Mean (SD) ([1]; Healthy Adults (8)): 137.2 (43.9) Molar %
- Indications of toxicity ([2]; at doses equimolar to the approved PBA dosage of 20 g/day): no indications of toxicity
- Dietary protein whose waste nitrogen is eliminated per gram of drug per day ([2]; given 60-75% conversion rate): ~1.3 grams
- Effect on creatinine levels ([2]; human, in vivo): little to no effect
- Relationship between dose and PAGN output ([2]; up to doses of 17.4 mL): linear relationship
- PK and PD in fed versus fasted state ([4]; after fasting (day 1) vs with a meal (day 8)): no PK or PD differences; also recorded: indistinguishable
- Intact HPN-100 in blood samples ([6]; UCD patients, all blood samples): either not detectable or below the limits of quantitation
- Adverse effects, number of subjects reporting [7]: 5
- Adverse effects, total number reported [7]: 15

- Urinary excretion of PAGN [8]: 4905 ± 1414 mg
- PBA AUC24 [9]: 542.6 µg·h/mL
- PBA Cmax [9]: 221.0 µg/mL
- PBA Tmax [9]: 54 min
- PBA T½ [9]: 42 min
- Unchanged PBA as share of the administered dosage ([3]; excreted): 48%
- PAGN as share of the administered radio labeled dose ([3]; urine): 23%
- Urine collection interval with highest PAGN output ([5]; 24 hour pattern): 6 to 12 h
- Conversion into urinary PAGN ([5]; average): ~60%
- PAGN excretion [5]: Comparable
- Mean PAGN amount excreted, 0-6 hours ([5]; urine): 2,452,838 μg
- Mean PAGN amount excreted, 0-12 hours ([5]; urine): 4,859,121 μg
- Mean PAGN amount excreted, 12-24 hours ([5]; urine): 4,645,447 μg
- AUC (PBA) [6, 12]: 739 (49) μg-hr/mL
- PBA AUC24 [6, 14]: 739.0 µg·h/mL
- PBA Cmax [6, 14]: 141.0 µg/mL
- PBA Tmax [6, 14]: 126 min
- PAA in plasma Cmaxss [6, 15]: 53.0 µg/mL
- PAA in plasma Cminss [6, 15]: 3.56 µg/mL
- PAGN in plasma Cmaxss [6, 15]: 83.3 µg/mL
- PAGN in plasma Cminss [6, 15]: 16.8 µg/mL
- PBA in plasma AUC0-24 [6, 15]: 739 µg·h/mL
- PBA in plasma Cmaxss [6, 15]: 141 µg/mL
- PBA in plasma Cminss [6, 15]: 0.588 µg/mL
- Absorption rate constant [11]: 1.34 h⁻¹
- Fraction of PBA converted pre-systemically (to PAA and PAGN) [11]: 1%
Compound: O=C([O-])CCCc1ccccc1.[Na+] [Sodium PBA, sodium phenylbutyrate]
- Venous ammonia Cmaxss, Mean (venous ammonia): 79.1 µmol/L
- Venous ammonia Cmaxss, Median (venous ammonia): 83.6 µmol/L
- Venous ammonia TN-AUC, Mean (venous ammonia): 38.4 µmol/L
- Venous ammonia TN-AUC, Median (venous ammonia): 36.8 µmol/L
- Venous ammonia Cmaxss (venous ammonia; Subject 1001): 29.0 µmol/L
- Venous ammonia TN-AUC (venous ammonia; Subject 1001): 16.47 µmol/L
- Venous ammonia Cmaxss (venous ammonia; Subject 1002): 31.0 µmol/L
- Venous ammonia TN-AUC (venous ammonia; Subject 1002): 20.9 µmol/L
- Venous ammonia Cmaxss (venous ammonia; Subject 1004): 85.0 µmol/L
- Venous ammonia TN-AUC (venous ammonia; Subject 1004): 46.8 µmol/L
- Venous ammonia Cmaxss (venous ammonia; Subject 1006): 150 µmol/L
- Venous ammonia TN-AUC (venous ammonia; Subject 1006): 71.5 µmol/L
- Venous ammonia Cmaxss (venous ammonia; Subject 2001): 88.0 µmol/L
- Venous ammonia TN-AUC (venous ammonia; Subject 2001): 52.1 µmol/L
- Venous ammonia Cmaxss (venous ammonia; Subject 2003): 31.0 µmol/L
- Venous ammonia TN-AUC (venous ammonia; Subject 2003): 17.5 µmol/L
- Venous ammonia Cmaxss (venous ammonia; Subject 3002): 108 µmol/L
- Venous ammonia TN-AUC (venous ammonia; Subject 3002): 22.3 µmol/L
- Venous ammonia Cmaxss (venous ammonia; Subject 3004): 115 µmol/L
- Venous ammonia TN-AUC (venous ammonia; Subject 3004): 62.9 µmol/L
- Venous ammonia Cmaxss (venous ammonia; Subject 5001): 82.2 µmol/L
- Venous ammonia TN-AUC (venous ammonia; Subject 5001): 35.8 µmol/L
- Venous ammonia Cmaxss (venous ammonia; Subject 5002): 72.2 µmol/L
- Venous ammonia TN-AUC (venous ammonia; Subject 5002): 37.7 µmol/L
- Mean percentage of normal ammonia values (venous ammonia; UCD patients): 58%
- Peak venous ammonia concentration (venous ammonia; UCD patients): 79.1 µmol/L
- Venous ammonia mean TN-AUC (venous ammonia; UCD patients): 38.4 µmol/L
- TN-AUC (NH3) (venous ammonia; [12]): 38.4 µM
- NH3: Total AUC (venous ammonia; UCD patients): 38.4 ± 19.6
- NH3 exposure: DAY (hours 6-12) (venous ammonia; UCD patients): 37.1
- NH3 exposure: NIGHT (hours 12-24) (venous ammonia; UCD patients): 36.3
- NH3 Cmax (venous ammonia; UCD patients): 79.1 ± 40.1
- Fraction excreted in the urine as PAGN [10]: 80-90%
- Conversion into urinary PAGN, overall efficiency on average ([2]; oral, typical/average across clinical studies): 60-75%
- Adverse effects, number of subjects reporting [7]: 7
- Adverse effects, total number reported [7]: 21
- Serious adverse effects [7]: 2 (symptomatic
- Serious adverse effects ([7]; listed as PBA): two subjects
